# In US7923465B2, “Cannabinoid receptor ligands, pharmaceutical compositions containing them, and process for their preparation” (priority 2005, dated 2011):
# Like-named read-outs stand apart in the source and are kept apart here.
# Legend:
# CB1 = CB1 (Rattus norvegicus, UniProt P20272); assay: Rat CB1 receptor binding using brain membrane, [3H]SR141716A displacement (Protocol I); parameters: CB1 receptor present in a rat brain membrane preparation; from tissue; host or cells: rat brain membrane; inhibition: dose or concentration left out as unconfirmed; settings: 1 h
# Method: I. In Vitro Protocol for Rat CB1 Receptor Binding Using Brain Membrane
# In this assay, [^3H]SR141716A (5-(4-chlorophenyl)-1-(2,4-dichlorophenyl)-4-methyl-N-(1-piperidyl)pyrazole-3-carboxamide) was used to bind the CB1 receptor present in a rat brain membrane preparation which can be displaced by unlabeled ligands having affinity to the CB1 receptor.
# The assay was performed according to the modified method of Thomas et al., 1998 (JPET 285: 285-292). The total reaction mixture ([…]) contained Tris-BSA buffer (50 mM Tris, pH 7.4 with 1.5% BSA) or unlabeled SR141716A […] or test samples […], [^3H] SR141716A (2 nM) and […] of rat brain membrane. The non-specific binding was defined by […] of SR141716A. The assay mixture was incubated at 37° C. for 1 hour. The reaction was then stopped by rapid filtration under vacuum using Whatman GF/B-96 micro filter plate. A scintillation cocktail was added and radioactive counts were measured using a Topcount beta scintillation counter.
# The standard and test sample dilutions were made in an assay buffer containing either ethanol or DMSO at a final concentration of 1%.
# The percent (%) displacement by a test ligand was calculated by comparing the specific bound values.
# hCB2 = hCB2 (Homo sapiens, UniProt P34972); assay: In vitro binding assay using hCB2-CHO membranes, [3H]-CP-55,940 displacement (Protocol IV); parameters: expressed in transfected cells; host or cells: CHO (hCB2-CHO, generated in-house); settings: 1 h, read-out: % Displacement Protocol IV
# In short: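 Displacement of [3H]-CP-55,940 (0.75 nM) from membranes of CHO cells expressing human CB2 (25-50 μg) was measured in Tris-BSA buffer pH 7.4 with 5 mM MgCl2, 1 mM EDTA, 0.1% BSA, 1 h at 30 °C. Test compounds were at 300 nM final; nonspecific binding defined with 0.5 μM CP-55,940. Values are % displacement of specific binding.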
# [1] = rat brain membrane, [3H]SR141716A displacement, read-out: % Displacement Protocol I
# [2] = hCB2-CHO membranes, [3H]-CP-55,940 displacement
# CB1, sequence (P20272 whole entry): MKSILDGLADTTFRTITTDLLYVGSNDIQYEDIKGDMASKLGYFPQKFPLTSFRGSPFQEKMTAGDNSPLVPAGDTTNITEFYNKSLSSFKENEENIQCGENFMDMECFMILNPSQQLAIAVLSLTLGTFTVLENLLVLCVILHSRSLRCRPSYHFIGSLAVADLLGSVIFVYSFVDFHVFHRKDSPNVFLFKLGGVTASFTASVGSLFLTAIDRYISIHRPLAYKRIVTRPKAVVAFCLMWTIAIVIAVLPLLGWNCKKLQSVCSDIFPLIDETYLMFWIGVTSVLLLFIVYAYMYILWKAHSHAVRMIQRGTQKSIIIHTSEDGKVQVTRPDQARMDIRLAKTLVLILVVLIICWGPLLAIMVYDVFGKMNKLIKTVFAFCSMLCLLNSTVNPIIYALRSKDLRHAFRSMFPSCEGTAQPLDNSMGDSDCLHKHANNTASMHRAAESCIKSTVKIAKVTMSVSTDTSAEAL
# hCB2, sequence (P34972 whole entry): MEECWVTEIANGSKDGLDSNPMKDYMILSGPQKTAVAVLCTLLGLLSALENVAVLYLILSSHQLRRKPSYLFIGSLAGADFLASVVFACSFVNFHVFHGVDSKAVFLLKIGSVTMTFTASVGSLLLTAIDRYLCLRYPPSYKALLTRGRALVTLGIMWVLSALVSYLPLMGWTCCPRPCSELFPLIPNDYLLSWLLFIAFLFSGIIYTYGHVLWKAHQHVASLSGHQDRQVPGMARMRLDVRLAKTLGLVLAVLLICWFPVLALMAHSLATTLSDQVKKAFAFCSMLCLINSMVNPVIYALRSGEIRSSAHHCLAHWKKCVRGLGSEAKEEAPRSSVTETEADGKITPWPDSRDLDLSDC
SMILES,inhibition (CB1; [1]) [%],melting point [°C],inhibition at 0.3 µM (hCB2; [2]) [%],"inhibition (CB1; read-out: % Displacement Protocol I, rat brain membrane, [3H]SR141716A displacement) [%]",inhibition at 0.3 µM (hCB2) [%]
"O=C(NNc1ccccc1)c1nn(-c2ccc(Cl)cc2)c2c1C1CCC2C1 (stereo not drawn) [Example 228, N(3)-Phenylamino-1-(4-chlorophenyl)-4,5,6,7-tetrahydro-1H-4,7-methano-indazole-3-carboxamide]",16.1,138 to 141,9.4,,
"O=C(NNc1ccc(Cl)cc1)c1n[nH]c2c1C1(c3ccc(Cl)cc3)CCC2C1 (stereo not drawn) [Example 229, N(3)-[(4-Chlorophenyl)amino]-4-(4-chlorophenyl)-4,5,6,7-tetrahydro-1H-4,7-methano-indazole-3-carboxamide]",47.1,202 to 205,24.6,,
"O=C(NNc1ccccc1F)c1nn(-c2ccc(Cl)cc2)c2c1C1CCC2C1 (stereo not drawn) [Example 232, N(3)-[(2-Fluorophenyl)amino]-1-(4-chlorophenyl)-4,5,6,7-tetrahydro-1H-4,7-methano-indazole-3-carboxamide]",49.7,91,13.8,,
"O=C(NNc1ccc(F)cc1)c1nn(-c2ccc(Cl)cc2)c2c1C1CCC2C1 (stereo not drawn) [Example 234, N(3)-[(4-Fluorophenyl)amino]-1-(4-chlorophenyl)-4,5,6,7-tetrahydro-1H-4,7-methano-indazole-3-carboxamide]",36.3,212,10.6,,
"O=C(Nn1cnnc1)c1nn(-c2ccc(Cl)cc2Cl)c2c1C1CCC2C1 (stereo not drawn) [Example 240, N(3)-(4H-1,2,4-triazol-4-yl)-1-(2,4-dichlorophenyl)-4,5,6,7-tetrahydro-1H-4,7-methano-indazole-3-carboxamide]",1.5,231 to 233,7.98,,
"O=C(NCc1ccc(Cl)cc1)c1nn(-c2ccc(Cl)cc2Cl)c2c1C1CCC2C1 (stereo not drawn) [Example 250, N(3)-(4-Chlorobenzyl)-1-(2,4-dichlorophenyl)-4,5,6,7-tetrahydro-1H-4,7-methano-indazole-3-carboxamide]",27.1,139 to 142,27.9,,
"O=C(NNc1ccc(Cl)cc1)c1nn(-c2ccc(Cl)cc2Cl)c2c1C1CCC2C1 (stereo not drawn) [Example 259, N(3)-[(4-Chlorophenyl)amino]-1-(2,4-dichlorophenyl)-4,5,6,7-tetrahydro-1H-4,7-methano-indazole-3-carboxamide]",18.3,141 to 144,33.3,,
"O=C(NNc1ccc(Cl)c(Cl)c1)c1nn(-c2ccc(Cl)cc2Cl)c2c1C1CCC2C1 (stereo not drawn) [Example 262, N(3)-[(3,4-Dichlorophenyl)amino]-1-(2,4-dichlorophenyl)-4,5,6,7-tetrahydro-1H-4,7-methano-indazole-3-carboxamide]",-1.6,176 to 179,32.6,,
"O=C(NN1CCCCC1)c1nn(-c2ccccc2Br)c2c1C1CCC2C1 (stereo not drawn) [Example 270, N(3)-Piperidino-1-(2-bromophenyl)-4,5,6,7-tetrahydro-1H-4,7-methano-indazole-3-carboxamide]",-14.6,236,8.62,,
"O=C(NC1CCCCC1)c1nn(-c2ccccc2Br)c2c1C1CCC2C1 (stereo not drawn) [Example 271, N(3)-Cyclohexyl-1-(2-bromophenyl)-4,5,6,7-tetrahydro-1H-4,7-methano-indazole-3-carboxamide]",,178,,11.7,46
"O=C(NCc1ccccc1)c1nn(-c2ccccc2Br)c2c1C1CCC2C1 (stereo not drawn) [Example 272, N(3)-Benzyl-1-(2-bromophenyl)-4,5,6,7-tetrahydro-1H-4,7-methano-indazole-3-carboxamide]",-4.5,110,18.4,,
"O=C(NNc1ccccc1)c1nn(-c2ccccc2Br)c2c1C1CCC2C1 (stereo not drawn) [Example 273, N(3)-Phenylamino-1-(2-bromophenyl)-4,5,6,7-tetrahydro-1H-4,7-methano-indazole-3-carboxamide]",-5.9,219,26.2,,
"O=C(NN1CCCCC1)c1nn(-c2ccc(Br)cc2)c2c1C1CCC2C1 (stereo not drawn) [Example 274, N(3)-Piperidino-1-(4-bromophenyl)-4,5,6,7-tetrahydro-1H-4,7-methano-indazole-3-carboxamide]",25.7,173,35.4,,
"O=C(NCc1ccccc1)c1nn(-c2ccc(Br)cc2)c2c1C1CCC2C1 (stereo not drawn) [Example 276, N(3)-Benzyl-1-(4-bromophenyl)-4,5,6,7-tetrahydro-1H-4,7-methano-indazole-3-carboxamide]",25.3,89,14.1,,
"O=C(NNc1ccccc1)c1nn(-c2ccc(Br)cc2)c2c1C1CCC2C1 (stereo not drawn) [Example 277, N(3)-Phenylamino-1-(4-bromophenyl)-4,5,6,7-tetrahydro-1H-4,7-methano-indazole-3-carboxamide]",-12.8,138,22.1,,
"O=C(NNc1ccccc1)c1nn(-c2ccc(F)cc2)c2c1C1CCC2C1 (stereo not drawn) [Example 284, N(3)-Phenylamino-1-(4-fluorophenyl)-4,5,6,7-tetrahydro-1H-4,7-methano-indazole-3-carboxamide]",13.7,163,0.9,,
